Measured values published in patent US20100029696A1, “INDOLYLAMINO QUINAZOLINE DERIVATIVES AS ANTITUMOR AGENTS” (priority 2005, published 2010).

Assays:
EGFR tyrosine kinase = biological target: T1, EGFR tyrosine kinase (Homo sapiens, UniProt P00533); test: Protein tyrosine kinase phosphorylation assay, Test (a), EGFR; format: biochemical; settings: ATP at Km concentration; read-out: IC50 Test (a): Inhibition of EGFR tyrosine kinase protein phosphorylation
T1 construct: Recombinant intracellular fragments of EGFR, erbB2 and erbB4; made in house; host or cells: baculovirus/Sf21 insect cells
Method: (§1) This test measures the ability of a test compound to inhibit the phosphorylation of a tyrosine containing polypeptide substrate by EGFR, erbB2 and erbB4 tyrosine kinase enzyme.
(§2) Recombinant intracellular fragments of EGFR, erbB2 and erbB4 (accession numbers X00588, X03363 and L07868 respectively) were cloned and expressed in the baculovirus/Sf21 system. […]
(§3) Constitutive kinase activity of these recombinant proteins was determined by their ability to phosphorylate a synthetic peptide (made up of a random co-polymer of Glutamic Acid, Alanine and Tyrosine in the ratio of 6:3:1). […]
(§4) The immobilised phospho-peptide product of the reaction was detected by immunological methods. […] After further washing, HRP activity in each well of the plate was measured colorimetrically using 22′-Azino-di-[3-ethylbenzthiazoline sulfonate (6)]diammonium salt crystals (ABTS™ from Roche) as a substrate.
(§5) Quantification of colour development and thus enzyme activity was achieved by the measurement of absorbance at 405 nm on a Molecular Devices ThermoMax microplate reader. Kinase inhibition for a given compound was expressed as an IC50 value. […] The range of phosphorylation was calculated from the positive (vehicle plus ATP) and negative (vehicle minus ATP) control values.

erbB2 tyrosine kinase = biological target: T2, erbB2 tyrosine kinase (Homo sapiens, UniProt P04626); test: Protein tyrosine kinase phosphorylation assay, Test (a), erbB2; format: biochemical; settings: ATP at Km concentration; read-out: IC50 Test (a): Inhibition of erbB2 tyrosine kinase protein phosphorylation
T2 construct: Recombinant intracellular fragments of EGFR, erbB2 and erbB4; made in house; host or cells: baculovirus/Sf21 insect cells
Method: as §1, §2, §3, §4, §5

[1] = biological target: T3, erbB2 in MCF7 derived cell line (Clone 24 cells) (Homo sapiens, UniProt P04626); test: Clone 24 phospho-erbB2 cell assay, Test (c); format: cell-based; settings: MCF7 derived Clone 24 cells, 4 hours; read-out: IC50 Test (c): Inhibition of erbB2 tyrosine kinase protein phosphorylation
T3 construct: a cell line that overexpresses full length wild type erbB2 protein; expressed in transfected cells; host or cells: MCF7 (breast carcinoma) cells, 'Clone 24'
Method: This immunofluorescence end point assay measures the ability of a test compound to inhibit the phosphorylation of erbB2 in a MCF7 (breast carcinoma) derived cell line which was generated by transfecting MCF7 cells with the full length erbB2 gene using standard methods to give a cell line that overexpresses full length wild type erbB2 protein (hereinafter ‘Clone 24’ cells).
Clone 24 cells were cultured in Growth Medium (phenol red free Dulbecco's modified Eagle's medium (DMEM) containing 10% foetal bovine serum, 2 mM glutamine and 1.2 mg/ml G418) in a 7.5% CO2 air incubator at 37° C. […] Cell density was measured using a haemocytometer and viability was calculated using Trypan Blue solution before being further diluted in Growth Medium and seeded at a density of 1×10^4 cells per well (in 100 μl) into clear bottomed 96 well plates (Packard, No. 6005182). […]
Immunostaining was performed at room temperature. […] Plates were analysed within six hours of completing the immunostaining.
The Fluorescence signal is each well was measured using an Acumen Explorer Instrument (Acumen Bioscience Ltd.), a plate reader that can be used to rapidly quantitate features of images generated by laser-scanning. […]

T2 sequence (P04626 676-1255 limits assumed): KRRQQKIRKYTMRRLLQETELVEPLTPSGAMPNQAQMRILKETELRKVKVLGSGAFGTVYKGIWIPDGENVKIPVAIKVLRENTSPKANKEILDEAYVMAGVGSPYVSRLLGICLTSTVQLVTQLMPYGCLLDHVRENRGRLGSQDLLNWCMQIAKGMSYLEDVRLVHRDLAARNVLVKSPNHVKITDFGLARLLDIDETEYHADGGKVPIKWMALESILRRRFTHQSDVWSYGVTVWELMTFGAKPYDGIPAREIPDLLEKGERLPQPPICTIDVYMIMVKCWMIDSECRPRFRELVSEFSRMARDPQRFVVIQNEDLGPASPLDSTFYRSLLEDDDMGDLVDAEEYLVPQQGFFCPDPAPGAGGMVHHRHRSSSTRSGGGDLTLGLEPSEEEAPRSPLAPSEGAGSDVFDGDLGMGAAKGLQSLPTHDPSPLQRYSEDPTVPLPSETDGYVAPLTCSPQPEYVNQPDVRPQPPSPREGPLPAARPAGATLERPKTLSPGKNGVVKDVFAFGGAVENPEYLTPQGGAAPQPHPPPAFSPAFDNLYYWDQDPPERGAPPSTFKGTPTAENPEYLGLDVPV
T1 sequence (P00533 669-1210 limits assumed): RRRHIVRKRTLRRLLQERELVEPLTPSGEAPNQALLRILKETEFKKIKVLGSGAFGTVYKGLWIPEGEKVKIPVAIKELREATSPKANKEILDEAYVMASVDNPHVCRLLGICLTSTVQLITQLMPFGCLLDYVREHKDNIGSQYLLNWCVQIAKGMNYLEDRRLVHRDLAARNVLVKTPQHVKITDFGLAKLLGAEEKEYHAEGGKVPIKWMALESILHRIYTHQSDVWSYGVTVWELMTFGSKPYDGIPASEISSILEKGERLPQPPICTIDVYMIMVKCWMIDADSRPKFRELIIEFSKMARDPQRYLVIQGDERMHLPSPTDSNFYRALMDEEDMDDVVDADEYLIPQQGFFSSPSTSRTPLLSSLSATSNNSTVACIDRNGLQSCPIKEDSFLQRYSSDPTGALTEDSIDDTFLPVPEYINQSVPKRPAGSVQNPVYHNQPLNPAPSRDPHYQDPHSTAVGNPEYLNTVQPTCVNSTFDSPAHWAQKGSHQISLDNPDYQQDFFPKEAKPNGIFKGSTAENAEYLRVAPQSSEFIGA
T3 sequence (P04626 23-1255): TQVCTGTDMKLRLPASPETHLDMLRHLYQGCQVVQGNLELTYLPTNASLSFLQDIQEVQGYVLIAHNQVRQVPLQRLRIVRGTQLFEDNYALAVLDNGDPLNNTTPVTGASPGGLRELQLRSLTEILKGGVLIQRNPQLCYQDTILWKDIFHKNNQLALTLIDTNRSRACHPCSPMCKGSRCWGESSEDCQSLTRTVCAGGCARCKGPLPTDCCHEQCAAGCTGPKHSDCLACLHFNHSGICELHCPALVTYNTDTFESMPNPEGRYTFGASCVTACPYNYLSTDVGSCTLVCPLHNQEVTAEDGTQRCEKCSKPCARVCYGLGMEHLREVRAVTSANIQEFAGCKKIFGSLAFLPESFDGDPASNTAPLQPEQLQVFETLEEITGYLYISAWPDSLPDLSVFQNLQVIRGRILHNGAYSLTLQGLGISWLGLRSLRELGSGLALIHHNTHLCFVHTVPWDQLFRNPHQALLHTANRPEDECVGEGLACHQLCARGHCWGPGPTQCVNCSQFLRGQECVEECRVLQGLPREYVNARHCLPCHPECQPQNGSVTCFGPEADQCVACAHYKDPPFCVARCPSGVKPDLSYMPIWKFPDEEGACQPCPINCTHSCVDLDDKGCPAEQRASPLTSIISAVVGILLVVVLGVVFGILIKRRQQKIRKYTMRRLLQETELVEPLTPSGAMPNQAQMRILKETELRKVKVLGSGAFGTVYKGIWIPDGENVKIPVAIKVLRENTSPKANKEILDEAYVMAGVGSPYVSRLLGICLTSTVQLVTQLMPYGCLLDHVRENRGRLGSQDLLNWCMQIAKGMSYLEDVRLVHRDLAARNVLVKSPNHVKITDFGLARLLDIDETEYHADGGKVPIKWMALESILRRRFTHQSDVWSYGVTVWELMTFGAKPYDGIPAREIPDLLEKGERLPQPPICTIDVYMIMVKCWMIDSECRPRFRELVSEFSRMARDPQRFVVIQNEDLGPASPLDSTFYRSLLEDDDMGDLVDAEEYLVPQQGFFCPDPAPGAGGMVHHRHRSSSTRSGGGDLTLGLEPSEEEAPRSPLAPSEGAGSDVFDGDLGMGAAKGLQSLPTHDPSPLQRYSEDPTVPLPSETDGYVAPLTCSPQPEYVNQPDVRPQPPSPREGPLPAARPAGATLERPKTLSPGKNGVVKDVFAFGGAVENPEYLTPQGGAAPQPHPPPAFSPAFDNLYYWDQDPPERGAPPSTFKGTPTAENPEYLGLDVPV

| Compound | IC50 (EGFR tyrosine kinase) | IC50 (erbB2 tyrosine kinase) | IC50 [1] |
| --- | --- | --- | --- |
| O=C(CO)N1CCCC[C@@H]1COc1cccc2ncnc(Nc3ccc4c(ccn4Cc4cscn4)c3)c12 [Example 2, 2-Oxo-2-((2R)-2-{[(4-{[1-(1,3-thiazol-4-ylmethyl)-1H-indol-5-yl]amino}quinazolin-5-yl)oxy]methyl}piperidin-1-yl)ethanol] | 1 nM | 38 nM | 35 nM |
| O=C(CO)N1CCCC[C@@H]1COc1cccc2ncnc(Nc3ccc4c(ccn4Cc4ccccn4)c3)c12 [Example 1, 2-Oxo-2-((2R)-2-{[(4-{[1-(pyridin-2-ylmethyl)-1H-indol-5-yl]amino}quinazolin-5-yl)oxy]methyl}piperidin-1-yl)ethanol] | 1 nM | 1 nM | – |
